How the values were obtained:
ΔF508-CFTR [1] = target: T1, ΔF508-CFTR (Homo sapiens, UniProt P13569, DEL508-508); experiment: CFTR cell surface levels using HRP-tagged ΔF508-CFTR expressing CFBE cells, in the presence of a co-corrector; format: cell-based
T1 construct: host or cells: CFBE41o-, doxycycline-inducible
Summary of the method: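 Cells were seeded with 0.5 μg/mL doxycycline and held 68 h at 37 °C. Test compounds plus 3 μM co-corrector (final 0.1% DMSO) were then added for 20 h at 33 °C. Washed cells received HRP substrate, and luminescence was normalized between DMSO and 3 μM co-corrector controls.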

ΔF508-CFTR [2] = target: T1, ΔF508-CFTR; experiment: CFTR cell surface levels using HRP-tagged ΔF508-CFTR expressing CFBE cells, intrinsic corrector capacity; format: cell-based
Summary of the method: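 Here the cells express ΔF508-CFTR with horseradish peroxidase inserted in extracellular loop 4, so only rescued channel at the surface gives luminescent signal. Compounds act on their own, 20 h at the reduced temperature of 33 °C; values are percent activity relative to DMSO and a 3 μM corrector.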

[3] = HRP-tagged ΔF508-CFTR expressing CFBE cells, in the presence of 3 μM co-corrector
[4] = HRP-tagged ΔF508-CFTR expressing CFBE cells, intrinsic corrector capacity (no co-corrector), 33° C., 20 hours
[5] = HRP-tagged ΔF508-CFTR expressing CFBE cells, in the presence of 3 μM co-corrector, read-out: EC50
[6] = HRP-tagged ΔF508-CFTR expressing CFBE cells, intrinsic corrector capacity (no co-corrector), 33° C., 20 hours, read-out: EC50

T1 sequence (P13569 with tags, fused parts or gaps DEL508-508): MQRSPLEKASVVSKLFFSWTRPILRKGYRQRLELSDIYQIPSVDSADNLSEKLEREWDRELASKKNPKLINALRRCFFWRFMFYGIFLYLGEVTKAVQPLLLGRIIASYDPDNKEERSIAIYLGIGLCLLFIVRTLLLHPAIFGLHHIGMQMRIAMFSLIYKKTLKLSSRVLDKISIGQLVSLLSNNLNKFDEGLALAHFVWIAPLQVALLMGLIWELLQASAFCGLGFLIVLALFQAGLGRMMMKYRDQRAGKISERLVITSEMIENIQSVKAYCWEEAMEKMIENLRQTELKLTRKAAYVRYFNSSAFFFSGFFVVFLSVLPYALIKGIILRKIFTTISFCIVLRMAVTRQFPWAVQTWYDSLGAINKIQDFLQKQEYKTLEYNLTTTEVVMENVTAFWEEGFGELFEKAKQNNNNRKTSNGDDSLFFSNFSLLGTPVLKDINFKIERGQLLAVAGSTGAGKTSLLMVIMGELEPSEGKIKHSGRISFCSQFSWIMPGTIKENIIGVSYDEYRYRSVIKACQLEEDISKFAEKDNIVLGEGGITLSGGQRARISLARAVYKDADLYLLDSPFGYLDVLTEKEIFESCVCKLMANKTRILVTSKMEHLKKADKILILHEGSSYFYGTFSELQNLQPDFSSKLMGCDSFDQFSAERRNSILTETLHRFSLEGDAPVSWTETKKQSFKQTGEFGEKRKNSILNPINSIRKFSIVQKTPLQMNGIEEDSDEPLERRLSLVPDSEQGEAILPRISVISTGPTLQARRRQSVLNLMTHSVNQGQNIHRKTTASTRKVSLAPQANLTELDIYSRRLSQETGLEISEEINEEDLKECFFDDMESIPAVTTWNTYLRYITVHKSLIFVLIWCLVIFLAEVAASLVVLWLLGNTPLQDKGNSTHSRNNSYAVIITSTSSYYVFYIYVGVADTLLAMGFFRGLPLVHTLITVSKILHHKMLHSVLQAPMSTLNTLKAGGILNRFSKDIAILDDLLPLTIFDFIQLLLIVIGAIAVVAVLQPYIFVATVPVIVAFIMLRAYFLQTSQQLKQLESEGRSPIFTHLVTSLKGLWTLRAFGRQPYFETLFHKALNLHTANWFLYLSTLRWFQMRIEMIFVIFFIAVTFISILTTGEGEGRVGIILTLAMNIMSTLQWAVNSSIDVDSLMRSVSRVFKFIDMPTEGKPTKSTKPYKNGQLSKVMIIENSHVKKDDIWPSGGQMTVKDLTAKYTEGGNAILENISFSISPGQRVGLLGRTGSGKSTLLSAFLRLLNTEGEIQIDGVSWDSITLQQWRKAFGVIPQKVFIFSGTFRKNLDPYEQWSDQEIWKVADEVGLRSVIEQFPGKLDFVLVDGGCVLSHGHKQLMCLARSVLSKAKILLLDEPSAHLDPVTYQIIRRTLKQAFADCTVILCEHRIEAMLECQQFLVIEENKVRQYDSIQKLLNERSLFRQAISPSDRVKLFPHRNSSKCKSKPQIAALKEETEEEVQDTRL

Structure (SMILES)	EC50 (ΔF508-CFTR [1])	% Activation (ΔF508-CFTR [1]; [3])	EC50 (ΔF508-CFTR [2])	% Activation (ΔF508-CFTR [2]; [4])	EC50 (ΔF508-CFTR [1]; [5])	EC50 (ΔF508-CFTR [2]; [6])
O=C(O)c1cc(N2CCC(CCN3CCOCC3)CC2)c2c(C3CCC3)nn(-c3ccccc3)c2n1 [compound 575, 3-cyclobutyl-4-{4-[2-(morpholin-4-yl)ethyl]piperidin-1-yl}-1-phenyl-1H-pyrazolo[3,4-b]pyridine-6-carboxylic acid]	209 nM	431.9%	512 nM	268.4%		
O=C(O)c1cc(N2CCC(N3CCCCC3)CC2)c2c(C3CCC3)nn(-c3ccccc3)c2n1 [compound 576, 4-([1,4′-bipiperidin]-1′-yl)-3-cyclobutyl-1-phenyl-1H-pyrazolo[3,4-b]pyridine-6-carboxylic acid]	396 nM	390.78%	496 nM	175.2%		
CC(C)c1nn(-c2ccc(F)cc2)c2nc(C(=O)O)cc(N3CCC(C(C)(C)O)CC3)c12 [compound 656, 1-(4-fluorophenyl)-4-[4-(2-hydroxypropan-2-yl)piperidin-1-yl]-3-(propan-2-yl)-1H-pyrazolo[3,4-b]pyridine-6-carboxylic acid]		415.7%		287.7%	191 nM	437 nM
O=C(O)c1cc(N2CCC(N3CCOCC3)CC2)c2c(C3CCC3)nn(-c3ccc(F)cc3)c2n1 [compound 679, 3-cyclobutyl-1-(4-fluorophenyl)-4-[4-(morpholin-4-yl)piperidin-1-yl]-1H-pyrazolo[3,4-b]pyridine-6-carboxylic acid]		503.6%		279.5%	299 nM	370 nM
CC(C1CCN(c2cc(C(=O)O)nc3c2c(C2CCC2)nn3-c2ccccc2)CC1)N1CCOCC1 (stereo not shown) [compound 683, 3-cyclobutyl-4-{4-[1-(morpholin-4-yl)ethyl]piperidin-1-yl}-1-phenyl-1H-pyrazolo[3,4-b]pyridine-6-carboxylic acid]		600.53%		395.1%	60.7 nM	141 nM
CC1CCN(CCC2CCN(c3cc(C(=O)O)nc4c3c(C3CCC3)nn4-c3ccccc3)CC2)CC1 [compound 687, 3-cyclobutyl-4-{4-[2-(4-methylpiperidin-1-yl)ethyl]piperidin-1-yl}-1-phenyl-1H-pyrazolo[3,4-b]pyridine-6-carboxylic acid]		454%		264.95%	89.7 nM	171 nM
CN1CCC2(CC1)CCN(c1cc(C(=O)O)nc3c1c(C1CCC1)nn3-c1ccccc1)CC2 [compound 699, 3-cyclobutyl-4-(9-methyl-3,9-diazaspiro[5.5]undecan-3-yl)-1-phenyl-1H-pyrazolo[3,4-b]pyridine-6-carboxylic acid]		432%		247.63%	169 nM	622 nM
O=C(O)c1cc(N2CCC(N3CCN(C4CC4)CC3)CC2)c2c(C3CCC3)nn(-c3ccccc3)c2n1 [compound 738, 3-cyclobutyl-4-[4-(4-cyclopropylpiperazin-1-yl)piperidin-1-yl]-1-phenyl-1H-pyrazolo[3,4-b]pyridine-6-carboxylic acid]		472.1%		267.6%	110 nM	245 nM
CC(C)c1nn(-c2ccc(F)cc2)c2nc(C(=O)O)cc(N3CCC(N4CCN(C5CC5)CC4)CC3)c12 [compound 754, 4-[4-(4-cyclopropylpiperazin-1-yl)piperidin-1-yl]-1-(4-fluorophenyl)-3-(propan-2-yl)-1H-pyrazolo[3,4-b]pyridine-6-carboxylic acid]		467.3%		254.1%	153 nM	385 nM
CC(C)c1nn(-c2ccc(F)cc2)c2nc(C(=O)O)cc(N3CCC(C(C)N4CCCC4)CC3)c12 (stereo not shown) [compound 789, 1-(4-fluorophenyl)-3-(propan-2-yl)-4-{4-[1-(pyrrolidin-1-yl)ethyl]piperidin-1-yl}-1H-pyrazolo[3,4-b]pyridine-6-carboxylic acid]		460.95%		257.05%	918 nM	477 nM
CC(C)c1nn(-c2ccc(F)cc2)c2nc(C(=O)O)cc(N3CCC(CN4CCCCC4)CC3)c12 [compound 790, 1-(4-fluorophenyl)-4-{4-[(piperidin-1-yl)methyl]piperidin-1-yl}-3-(propan-2-yl)-1H-pyrazolo[3,4-b]pyridine-6-carboxylic acid]		419.1%		193.7%	181 nM	294 nM
CO[C@@H]1CCN(CC2CCN(c3cc(C(=O)O)nc4c3c(C3CCC3)nn4-c3ccccc3)CC2)C1 [compound 803, 3-cyclobutyl-4-(4-{[(3R)-3-methoxypyrrolidin-1-yl]methyl}piperidin-1-yl)-1-phenyl-1H-pyrazolo[3,4-b]pyridine-6-carboxylic acid]		436%		229.35%	672 nM	1020 nM
COC[C@H]1CCN(CC2CCN(c3cc(C(=O)O)nc4c3c(C3CCC3)nn4-c3ccccc3)CC2)C1 [compound 804, 3-cyclobutyl-4-(4-{[(3S)-3-(methoxymethyl)pyrrolidin-1-yl]methyl}piperidin-1-yl)-1-phenyl-1H-pyrazolo[3,4-b]pyridine-6-carboxylic acid]		365%		191.15%	231 nM	489 nM
O=C(O)c1cc(N2CCC(CCN3CCOCC3)CC2)c2c(C3CCC3)nn(-c3ccc(F)cc3)c2n1 [compound 810, 3-cyclobutyl-1-(4-fluorophenyl)-4-{4-[2-(morpholin-4-yl)ethyl]piperidin-1-yl}-1H-pyrazolo[3,4-b]pyridine-6-carboxylic acid]		468.7%		277.6%	88.4 nM	204 nM
O=C(O)c1cc(N2CCC(N3CCC(F)CC3)CC2)c2c(C3CCC3)nn(-c3ccc(F)cc3)c2n1 [compound 849, 3-cyclobutyl-4-(4-fluoro[1,4′-bipiperidin]-1′-yl)-1-(4-fluorophenyl)-1H-pyrazolo[3,4-b]pyridine-6-carboxylic acid]		458.6%		249.1%	231 nM	660 nM
COCCN1CCN(c2ccc(-c3cc(C(=O)O)nc4c3c(C3CCC3)nn4C3CCCCC3)cn2)CC1 [compound 878, 3-cyclobutyl-1-cyclohexyl-4-{6-[4-(2-methoxyethyl)piperazin-1-yl]pyridin-3-yl}-1H-pyrazolo[3,4-b]pyridine-6-carboxylic acid]		391.3%		181.05%	99.6 nM	221 nM
O=C(O)c1cc(N2CCC(N3CCN(C4CC4)CC3)CC2)c2c(C3CCC3)nn(-c3ccc(F)cc3)c2n1 [compound 886, 3-cyclobutyl-4-[4-(4-cyclopropylpiperazin-1-yl)piperidin-1-yl]-1-(4-fluorophenyl)-1H-pyrazolo[3,4-b]pyridine-6-carboxylic acid]		551.77%		236.05%	511 nM	467 nM
O=C(O)c1cc(N2CCC3(CC2)CCN(C2CC2)CC3)c2c(C3CCC3)nn(-c3ccc(F)cc3)c2n1 [compound 887, 3-cyclobutyl-4-(9-cyclopropyl-3,9-diazaspiro[5.5]undecan-3-yl)-1-(4-fluorophenyl)-1H-pyrazolo[3,4-b]pyridine-6-carboxylic acid]		375.13%		191.35%	204 nM	361 nM
CC(C)N1CCC2(CCN(c3cc(C(=O)O)nc4c3c(C3CCC3)nn4-c3ccc(F)cc3)CC2)CC1 [compound 890, 3-cyclobutyl-1-(4-fluorophenyl)-4-[9-(propan-2-yl)-3,9-diazaspiro[5.5]undecan-3-yl]-1H-pyrazolo[3,4-b]pyridine-6-carboxylic acid]		406.67%		179%	225 nM	742 nM
COC1CCN(C2CCN(c3cc(C(=O)O)nc4c3c(C3CCC3)nn4-c3ccc(F)cc3)CC2)CC1 [compound 892, 3-cyclobutyl-1-(4-fluorophenyl)-4-(4-methoxy[1,4′-bipiperidin]-1′-yl)-1H-pyrazolo[3,4-b]pyridine-6-carboxylic acid]		428.72%		196.44%	602 nM	603 nM
O=C(O)c1cc(N2CCC3(CC2)CCN(C2CCC2)CC3)c2c(C3CCC3)nn(-c3ccc(F)cc3)c2n1 [compound 894, 3-cyclobutyl-4-(9-cyclobutyl-3,9-diazaspiro[5.5]undecan-3-yl)-1-(4-fluorophenyl)-1H-pyrazolo[3,4-b]pyridine-6-carboxylic acid]		371.3%		164%	218 nM	304 nM
COCCN1CCC2(CC1)CCN(c1cc(C(=O)O)nc3c1c(C1CCC1)nn3-c1ccc(F)cc1)CC2 [compound 897, 3-cyclobutyl-1-(4-fluorophenyl)-4-[9-(2-methoxyethyl)-3,9-diazaspiro[5.5]undecan-3-yl]-1H-pyrazolo[3,4-b]pyridine-6-carboxylic acid]		354.93%		151.25%	186 nM	348 nM
